Legend:
[1] = system: human non-small cell lung cancer (Calu-6); experiment: Example 2: FK330 with multicycle paclitaxel in Calu-6 tumor-bearing mice; assay type: in vivo, nude mice; details: for tumor volume reduction ratio compared with the paclitaxel-only group: FK330 100 mg/kg bid p.o. continuously + paclitaxel 10 mg/kg/day i.v. multicycle, P<0.01
Procedure: The dose of FK330 is expressed in weight including the hydrate. A paclitaxel injectable preparation (paclitaxel injection liquid, “Sawai”) was purchased from Sawai Pharmaceutical Co., Ltd., and was used as paclitaxel.
FK330 was suspended (20 mg/mL) in a 0.5% aqueous methyl cellulose solution (0.5% MC). Paclitaxel was prepared with physiological saline for injection (Otsuka Pharmaceutical Group) to a concentration of 1 mg/mL at the time of use.
(§1) Human lung cancer-derived Calu 6 (HTB-56) was obtained from American Type Culture Collection (VA, USA). The cells were cultured under the conditions of 37° C. and 5% CO2 by using RPMI1640 medium containing 10% heat-inactivated fetal bovine serum (FBS). The cells were harvested with trypsin and were suspended in PBS at 6×10^7 cells/mL, and the suspension was mixed with an equal amount of Matrigel (trade name) Basement Membrane Matrix (manufactured by Becton Dickinson Co., Bedford, Mass., USA).
Five-week old male nude mice (CAnN Cg-Foxn1nu/CrICrlj(nu/nu)) were purchased from Charles River Laboratories Japan, Inc. (Japan, Kanagawa). The animals were raised under specific pathogen-free (SPF) conditions throughout the test period by feeding standard feedstuff and drinking water. The cultured cells were subcutaneously inoculated into the dorsal region of the nude mice at a concentration of 3×10^6 cells/0.1 mL/mouse. Nude mice which had the tumor volumes (major axis×[minor axis]^2×0.52) ranging from 136.5 mm^3 to 299.0 mm^3 were assigned by using SAS to minimize the fluctuation in the tumor volume between the groups and within the group.
The first day of administration was designated as Day 1, and observation was made until Day 83. The respective groups (n=6) were treated as follows. FK330 was orally gavaged in an amount of 5 mL/kg, and paclitaxel was administered intravenously through the tail vein in an amount of 10 mL/kg. Paclitaxel was continuously administered from Day 1 to Day 7, and then was withdrawn for 23 days (1 cycle). In the administration of PTX in the second cycle and the third cycle, PTX was continuously administered for 6 days from Day 31 and from Day 60, respectively. […]
(§2) Every 2 to 4 days, the body weight and the tumor diameters, determined by using a digital caliper, were measured. The tumor volume was calculated from the calculation formula for ellipsoid volume of (major axis×[minor axis]^2×0.52).
The results are expressed as the mean value (Mean)±standard error (SEM). […] Using the actual measured values of the tumor volume at the end of the study, an unpaired statistical test (Student's t-test) of the difference between two groups was carried out between a single administration group and a combined use group. […]

[2] = system: human gastric cancer (NCI-N87); experiment: Example 5: FK330 with paclitaxel in NCI-N87 tumor-bearing mice; assay type: in vivo, nude mice; details: for tumor volume on the last day of experiment: NCI-N87, Day 56, mean±SEM
Procedure: Preparation of the test substances was carried out in the same manner as in Example 2.
as §1, with “gastric” for “lung”, “NCI-N87 (CRL-5822)” for “Calu 6 (HTB-56)”, “USA), MKN-28 (JCRB0253) was obtained from Health Science Research Resources Bank (HSRRB), and AZ-521 (RCB2087) was obtained from Riken BRC. NCI-N87 and MKN-28” for “USA). The”, “(FBS), and AZ-521 cells were cultured under the conditions of 37° C. and 5% CO2 by using DMEM medium containing 10% heat-inactivated FBS.” for “(FBS).”
Five-week old male nude mice (CAnN Cg-Foxn1nu/CrlCrlj(nu/nu)) were purchased from Charles River Laboratories Japan, Inc. (Japan, Kanagawa). The animals were raised under specific pathogen-free (SPF) conditions throughout the test period by feeding standard feedstuff and drinking water. The cultured cells were subcutaneously inoculated into the dorsal region of the nude mice at a concentration of 3×10^6 cells/0.1 mL/mouse. […]
as §2
The results are expressed as the mean value (Mean)±standard error (SEM). Using the actual measured values of the tumor volume at each measurement time point, an unpaired statistical test (Student's t-test) of the difference between two groups was carried out between a single administration group and a combined use group. […]

## O=C(/C=C/c1ccc(Cl)cc1)N[C@@H](Cc1ccccn1)C(=O)NCC(=O)N1CCC(Oc2cc(C(F)(F)F)ncn2)CC1 [FK330, N^2-[(2E)-3-(4-chlorophenyl)-2-propenoyl]-N-[2-oxo-2-(4-{[6-(trifluoromethyl)pyrimidin-4-yl]oxy}piperidin-1-yl)ethyl]-3-pyridin-2-yl-L-alaninamide]
[1]; Day 29
  tumor volume reduction ratio compared with the paclitaxel-only group: 57.6%
[1]; Day 60
  tumor volume reduction ratio compared with the paclitaxel-only group: 86.1%
[1]; Day 83
  tumor volume reduction ratio compared with the paclitaxel-only group: 87.6%
[2]; combined use group paclitaxel + FK330 100 mg/kg bid
  tumor volume on the last day of experiment: 223.9±85.1 mm^3
[2]; NCI-N87, last day, FK330 100 mg/kg bid + paclitaxel, P<0.03
  tumor volume decrease compared with the paclitaxel-only group: 54.5%

## CC(=O)O[C@H]1C(=O)[C@@]2(C)[C@H]([C@H](OC(=O)c3ccccc3)[C@]3(O)C[C@H](OC(=O)[C@H](O)[C@@H](NC(=O)c4ccccc4)c4ccccc4)C(C)=C1C3(C)C)[C@]1(OC(C)=O)CO[C@@H]1C[C@@H]2O [paclitaxel, reference compound]
[1]; paclitaxel 10 mg/kg/day i.v. alone, three cycles, until Day 83
  anti-tumor effect of paclitaxel as a result of multicycle administration: tended to attenuate
[2]; paclitaxel-only group 10 mg/kg/day i.v., two cycles
  tumor volume on the last day of experiment: 492.0±48.5 mm^3

— patent publication US20140066385A1, “METHOD FOR TREATING CANCER BY COMBINED USE OF DRUGS” (Astellas Pharma Inc., priority 2011, published 2014)
